Measurements reported in ChEMBL document CHEMBL1150806, “A new macrocyclic trichothecene, 12,13-deoxyroridin E, produced by the marine-derived fungus Myrothecium roridum collected in Palau” (J Nat Prod, 2001).
Converted amounts (≈) assume the structure as drawn.

What was measured:
HL-60 = test: Cytotoxicity against human HL60 cells after 72 hrs by WST8 assay; assay type: functional, cell-based
L1210 = test: Cytotoxicity against mouse L1210 cells after 72 hrs by WST8 assay; assay type: functional, cell-based

Structure (SMILES): CC1=C[C@H]2O[C@@H]3C[C@H]4OC(=O)/C=C\C=C\[C@H]([C@@H](C)O)OCC/C(C)=C/C(=O)OC[C@@]2(CC1)[C@]4(C)[C@]31CO1 [RORIDIN E]
- IC50 (HL-60; hl-60): 0.3 ng/mL (≈ 0.583 nM)
- IC50 (L1210; l1210): 0.2 ng/mL (≈ 0.389 nM)

Structure (SMILES): CC1=C[C@H]2O[C@@H]3C[C@H]4OC(=O)/C=C\C=C\C(=O)OCC[C@@H](C)[C@H](O)C(=O)OC[C@@]2(CC1)[C@]4(C)[C@]31CO1 [VERRUCARIN A]
- IC50 (HL-60; hl-60): 0.2 ng/mL (≈ 0.398 nM)
- IC50 (L1210; l1210): 0.35 ng/mL (≈ 0.696 nM)

Structure (SMILES): CC1=C[C@H]2O[C@@H]3C[C@H]4OC(=O)/C=C\C=C\C(=O)OCC/C(C)=C/C(=O)OC[C@@]2(CC1)[C@]4(C)[C@]31CO1 [VERRUCARIN J]
- IC50 (HL-60; hl-60): 2.5 ng/mL (≈ 5.16 nM)
- IC50 (L1210; l1210): 2.5 ng/mL (≈ 5.16 nM)

Structure (SMILES): C=C1[C@H]2C[C@H]3OC(=O)/C=C\C=C\[C@H]([C@@H](C)O)OCC/C(C)=C/C(=O)OC[C@@]4(CCC(C)=C[C@H]4O2)[C@]13C
- IC50 (HL-60; Homo sapiens, HL-60, 72 h, read-out: IC50): 25 ng/mL (≈ 50.1 nM)
- IC50 (L1210; Mus musculus, L1210, 72 h, read-out: IC50): 1.5 ng/mL (≈ 3.01 nM)
